Values of other authors in patent US20060168671A1, “Injection of caprine sperm factor (cSF), phospholipase C zeta (PLCzeta) and adenophostin A as alternative methods of activation during nuclear transfer in the caprine species” (priority 2005, published 2006).

Legend:
IP3R = details: relative to IP3; Takahashi et al., 1994
MII mouse eggs = details: Jellerette et al., 2000

Nc1ncnc2c1ncn2[C@@H]1O[C@H](CO)[C@@H](O[C@H]2O[C@H](CO)[C@@H](OP(=O)(O)O)[C@H](OP(=O)(O)O)[C@H]2O)[C@H]1OP(=O)(O)O [Adenophostin A]
affinity to IP3R greater than IP3 itself (IP3R): 10-100 fold | [Ca2+]i oscillations (MII mouse eggs): induces fertilization-like oscillations | activation rates (MII mouse eggs): high activation rates
